Laboratory results taken from patent US11634404B2 (priority 2016, dated 2023).

Columns and labels:
Assay type in all cases: cell-based
panel of 168 GPCRs [1] = target: panel of 168 GPCRs (Homo sapiens, UniProt Q9UBY5); conditions: GPCR EDG7; agonist, 10 μM
panel of 168 GPCRs [2] = conditions: GPCR DRD2S; agonist, 10 μM
panel of 168 GPCRs [3] = target: panel of 168 GPCRs (Homo sapiens, UniProt P21917); conditions: GPCR DRD4; agonist, 10 μM
panel of 168 GPCRs [4] = target: panel of 168 GPCRs (Homo sapiens, UniProt P48546); conditions: GPCR GIPR; agonist, 10 μM
panel of 168 GPCRs [5] = target: panel of 168 GPCRs (Homo sapiens, UniProt P25116); conditions: GPCR F2R; agonist, 10 μM
panel of 168 GPCRs [6] = target: panel of 168 GPCRs (Homo sapiens, UniProt P61073); conditions: GPCR CXCR4; agonist, 10 μM
panel of 168 GPCRs [7] = target: panel of 168 GPCRs (Homo sapiens, UniProt O43614); conditions: GPCR HCRTR2; agonist, 10 μM
panel of 168 GPCRs [8] = target: panel of 168 GPCRs (Homo sapiens, UniProt Q5NUL3); conditions: GPCR GPR120; agonist, 10 μM
panel of 168 GPCRs [9] = target: panel of 168 GPCRs (Homo sapiens, UniProt P34972); conditions: GPCR CNR2; agonist, 10 μM
panel of 168 GPCRs [10] = target: panel of 168 GPCRs (Homo sapiens, UniProt P21452); conditions: GPCR TACR2; agonist, 10 μM
panel of 168 GPCRs [11] = target: panel of 168 GPCRs (Homo sapiens, UniProt Q9NSD7); conditions: GPCR RXFP3; agonist, 10 μM
panel of 168 GPCRs [12] = target: panel of 168 GPCRs (Homo sapiens, UniProt P08912); conditions: GPCR CHRM5; agonist, 10 μM
panel of 168 GPCRs [13] = target: panel of 168 GPCRs (Homo sapiens, UniProt O14842); conditions: GPCR FFAR1; agonist, 10 μM
panel of 168 GPCRs [14] = target: panel of 168 GPCRs (Homo sapiens, UniProt P35372); conditions: GPCR OPRM1; agonist, 10 μM
panel of 168 GPCRs [15] = target: panel of 168 GPCRs (Homo sapiens, UniProt P11229); conditions: GPCR CHRM1; agonist, 10 μM
panel of 168 GPCRs [16] = target: panel of 168 GPCRs (Homo sapiens, UniProt P51684); conditions: GPCR CCR6; agonist, 10 μM
panel of 168 GPCRs [17] = target: panel of 168 GPCRs (Homo sapiens, UniProt P08173); conditions: GPCR CHRM4; agonist, 10 μM
panel of 168 GPCRs [18] = target: panel of 168 GPCRs (Homo sapiens, UniProt Q96LB1); conditions: GPCR MRGPRX2; agonist, 10 μM
panel of 168 GPCRs [19] = target: panel of 168 GPCRs (Homo sapiens, UniProt P35414); conditions: GPCR AGTRL1; agonist, 10 μM
panel of 168 GPCRs [20] = target: panel of 168 GPCRs (Homo sapiens, UniProt P08908); conditions: GPCR HTR1A; agonist, 10 μM
panel of 168 GPCRs [21] = target: panel of 168 GPCRs (Homo sapiens, UniProt P32239); conditions: GPCR CCKBR; agonist, 10 μM
panel of 168 GPCRs [22] = target: panel of 168 GPCRs (Homo sapiens, UniProt P43119); conditions: GPCR PTGIR; agonist, 10 μM
panel of 168 GPCRs [23] = target: panel of 168 GPCRs (Homo sapiens, UniProt P41597); conditions: GPCR CCR2; agonist, 10 μM
panel of 168 GPCRs [24] = target: panel of 168 GPCRs (Homo sapiens, UniProt Q13324); conditions: GPCR CRHR2; agonist, 10 μM
panel of 168 GPCRs [25] = target: panel of 168 GPCRs (Homo sapiens, UniProt Q9P296); conditions: GPCR C5L2; agonist, 10 μM
panel of 168 GPCRs [26] = target: panel of 168 GPCRs (Homo sapiens, UniProt P25025); conditions: GPCR CXCR2; agonist, 10 μM
panel of 168 GPCRs [27] = target: panel of 168 GPCRs (Homo sapiens, UniProt P30874); conditions: GPCR SSTR2; agonist, 10 μM
panel of 168 GPCRs [28] = target: panel of 168 GPCRs (Homo sapiens, UniProt P32249); conditions: GPCR EBI2; agonist, 10 μM
panel of 168 GPCRs [29] = target: panel of 168 GPCRs (Homo sapiens, UniProt P25106); conditions: GPCR CXCR7; agonist, 10 μM
panel of 168 GPCRs [30] = target: panel of 168 GPCRs (Homo sapiens, UniProt P21462); conditions: GPCR FPR1; agonist, 10 μM
panel of 168 GPCRs [31] = target: panel of 168 GPCRs (Homo sapiens, UniProt P32248); conditions: GPCR CCR7; agonist, 10 μM
panel of 168 GPCRs [32] = target: panel of 168 GPCRs (Homo sapiens, UniProt P33032); conditions: GPCR MC5R; agonist, 10 μM

panel of 168 GPCRs (Homo sapiens, UniProt P48546), sequence (P48546 22-466 limits assumed): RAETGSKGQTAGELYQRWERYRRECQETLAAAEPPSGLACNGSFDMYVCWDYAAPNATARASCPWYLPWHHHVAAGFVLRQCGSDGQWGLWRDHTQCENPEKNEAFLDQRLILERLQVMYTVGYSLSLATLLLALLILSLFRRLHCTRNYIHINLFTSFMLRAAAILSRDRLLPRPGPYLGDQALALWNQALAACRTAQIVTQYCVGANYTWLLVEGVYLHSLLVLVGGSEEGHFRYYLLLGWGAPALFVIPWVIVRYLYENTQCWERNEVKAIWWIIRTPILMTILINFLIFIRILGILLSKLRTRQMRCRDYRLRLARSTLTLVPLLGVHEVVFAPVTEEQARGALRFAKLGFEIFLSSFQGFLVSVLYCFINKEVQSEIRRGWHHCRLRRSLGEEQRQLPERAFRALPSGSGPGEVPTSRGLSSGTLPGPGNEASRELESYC
panel of 168 GPCRs (Homo sapiens, UniProt P25116), sequence (P25116 22-425 limits assumed): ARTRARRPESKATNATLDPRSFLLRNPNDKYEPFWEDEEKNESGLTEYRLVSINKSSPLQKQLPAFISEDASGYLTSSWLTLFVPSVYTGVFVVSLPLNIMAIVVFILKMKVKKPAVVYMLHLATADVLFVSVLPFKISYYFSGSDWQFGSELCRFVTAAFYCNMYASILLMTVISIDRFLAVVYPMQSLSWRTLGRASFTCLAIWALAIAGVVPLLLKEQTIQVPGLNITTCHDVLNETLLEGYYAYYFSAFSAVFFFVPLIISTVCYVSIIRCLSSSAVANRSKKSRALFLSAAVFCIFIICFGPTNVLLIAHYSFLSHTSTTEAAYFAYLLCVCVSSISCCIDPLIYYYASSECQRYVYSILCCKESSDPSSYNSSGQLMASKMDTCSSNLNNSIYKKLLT
panel of 168 GPCRs (Homo sapiens, UniProt P32248), sequence (P32248 25-378 limits assumed): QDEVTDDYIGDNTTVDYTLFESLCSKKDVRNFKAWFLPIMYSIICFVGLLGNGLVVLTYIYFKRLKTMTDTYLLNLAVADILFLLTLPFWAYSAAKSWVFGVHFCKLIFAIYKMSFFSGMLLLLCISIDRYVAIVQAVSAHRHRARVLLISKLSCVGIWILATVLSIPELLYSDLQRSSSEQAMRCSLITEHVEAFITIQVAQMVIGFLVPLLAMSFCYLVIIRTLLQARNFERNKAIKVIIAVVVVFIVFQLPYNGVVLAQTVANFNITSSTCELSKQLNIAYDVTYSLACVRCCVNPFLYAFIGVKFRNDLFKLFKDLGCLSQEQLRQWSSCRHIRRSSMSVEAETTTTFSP

## COc1ccc(OCCN2CCN(C(=O)c3cc4ccccc4[nH]3)CC2)cc1 [Compound 1, (1H-indol-2-yl)(4-(2-(4-methoxyphenoxy)ethyl)piperazin-1-yl)methanone]
Panel of 168 GPCRs [1]
  β-Arrestin Recruitment activity: 6%
Panel of 168 GPCRs [2]
  β-Arrestin Recruitment activity: 43%
Panel of 168 GPCRs [3]
  β-Arrestin Recruitment activity: 4%
Panel of 168 GPCRs [4]
  β-Arrestin Recruitment activity: 3%
Panel of 168 GPCRs [5]
  β-Arrestin Recruitment activity: 5%
Panel of 168 GPCRs [6]
  β-Arrestin Recruitment activity: 17%
Panel of 168 GPCRs [7]
  β-Arrestin Recruitment activity: 0%
Panel of 168 GPCRs [8]
  β-Arrestin Recruitment activity: 12%
Panel of 168 GPCRs [9]
  β-Arrestin Recruitment activity: −14%
Panel of 168 GPCRs [10]
  β-Arrestin Recruitment activity: 3%
Panel of 168 GPCRs [11]
  β-Arrestin Recruitment activity: 5%
Panel of 168 GPCRs [12]
  β-Arrestin Recruitment activity: 3%
Panel of 168 GPCRs [13]
  β-Arrestin Recruitment activity: 4%
Panel of 168 GPCRs [14]
  β-Arrestin Recruitment activity: 0%
Panel of 168 GPCRs [15]
  β-Arrestin Recruitment activity: 5%
Panel of 168 GPCRs [16]
  β-Arrestin Recruitment activity: 0%
Panel of 168 GPCRs [17]
  β-Arrestin Recruitment activity: 3%
Panel of 168 GPCRs [18]
  β-Arrestin Recruitment activity: 5%
Panel of 168 GPCRs [19]
  β-Arrestin Recruitment activity: 4%
Panel of 168 GPCRs [20]
  β-Arrestin Recruitment activity: 8%
Panel of 168 GPCRs [21]
  β-Arrestin Recruitment activity: 4%
Panel of 168 GPCRs [22]
  β-Arrestin Recruitment activity: 4%
Panel of 168 GPCRs [23]
  β-Arrestin Recruitment activity: 4%
Panel of 168 GPCRs [24]
  β-Arrestin Recruitment activity: 0%
Panel of 168 GPCRs [25]
  β-Arrestin Recruitment activity: 6%
Panel of 168 GPCRs [26]
  β-Arrestin Recruitment activity: 6%
Panel of 168 GPCRs [27]
  β-Arrestin Recruitment activity: 0%
Panel of 168 GPCRs [28]
  β-Arrestin Recruitment activity: 0%
Panel of 168 GPCRs [29]
  β-Arrestin Recruitment activity: 3%
Panel of 168 GPCRs [30]
  β-Arrestin Recruitment activity: 5%
Panel of 168 GPCRs [31]
  β-Arrestin Recruitment activity: 4%
Panel of 168 GPCRs [32]
  β-Arrestin Recruitment activity: 5%
